Results published in ChEMBL document CHEMBL1155172, “Distribution of radioactivity in bone and related structures following administration of [14C]dalbavancin to New Zealand white rabbits” (Antimicrob Agents Chemother, 2007).

Legend:
[1] = Drug level in New Zealand white rabbit bone marrow assessed as [14C]dalbavancin level per gram of tissue at 20 mg/kg, iv after 12 hrs by liquid scintillation counting method; format: ADME, organism-based, Oryctolagus cuniculus; set-up: dose 20 mg/kg, route intravenous; conditions: in vivo
[2] = Drug level in New Zealand white rabbit articular cartilage assessed as [14C]dalbavancin level per gram of tissue at 20 mg/kg, iv after 12 hrs by autoradioluminography; format: ADME, organism-based, Oryctolagus cuniculus; set-up: dose 20 mg/kg, route intravenous; conditions: in vivo
[3] = system: Blood; experiment: Drug level in New Zealand white rabbit blood assessed as [14C]dalbavancin level per gram of tissue at 20 mg/kg, iv after 12 hrs by autoradioluminography; format: ADME, organism-based, Oryctolagus cuniculus; set-up: dose 20 mg/kg, route intravenous; conditions: in vivo
[4] = Drug level in New Zealand white rabbit bone marrow assessed as [14C]dalbavancin level per gram of tissue at 20 mg/kg, iv after 72 hrs by autoradioluminography; format: ADME, organism-based, Oryctolagus cuniculus; set-up: dose 20 mg/kg, route intravenous; conditions: in vivo
[5] = Drug level in New Zealand white rabbit bone assessed as [14C]dalbavancin level per gram of tissue at 20 mg/kg, iv after 72 hrs by liquid scintillation counting method; format: ADME, organism-based, Oryctolagus cuniculus, Bone element; set-up: dose 20 mg/kg, route intravenous; conditions: in vivo
[6] = Drug level in New Zealand white rabbit nucleus pulposus assessed as [14C]dalbavancin level per gram of tissue at 20 mg/kg, iv after 24 hrs by liquid scintillation counting method; format: ADME, organism-based, Oryctolagus cuniculus; set-up: dose 20 mg/kg, route intravenous; conditions: in vivo
[7] = Drug level in New Zealand white rabbit skeletal muscle assessed as [14C]dalbavancin level per gram of tissue at 20 mg/kg, iv after 168 hrs by autoradioluminography; format: ADME, organism-based, Oryctolagus cuniculus; set-up: dose 20 mg/kg, route intravenous; conditions: in vivo
[8] = Drug level in New Zealand white rabbit skeletal muscle assessed as [14C]dalbavancin level per gram of tissue at 20 mg/kg, iv after 12 hrs by autoradioluminography; format: ADME, organism-based, Oryctolagus cuniculus; set-up: dose 20 mg/kg, route intravenous; conditions: in vivo
[9] = Drug level in New Zealand white rabbit compact bone assessed as [14C]dalbavancin level per gram of tissue at 20 mg/kg, iv after 12 hrs by autoradioluminography; format: ADME, organism-based, Oryctolagus cuniculus, Bone element; set-up: dose 20 mg/kg, route intravenous; conditions: in vivo
[10] = Drug level in New Zealand white rabbit bone marrow assessed as [14C]dalbavancin level per gram of tissue at 20 mg/kg, iv after 168 hrs by liquid scintillation counting method; format: ADME, organism-based, Oryctolagus cuniculus; set-up: dose 20 mg/kg, route intravenous; conditions: in vivo
[11] = system: Oryctolagus cuniculus; experiment: Plasma concentration in New Zealand white rabbit assessed as [14C]dalbavancin level per gram of tissue at 20 mg/kg, iv after 24 hrs by liquid scintillation counting method; format: ADME, organism-based; set-up: dose 20 mg/kg, route intravenous; conditions: in vivo
[12] = Drug level in New Zealand white rabbit compact bone assessed as [14C]dalbavancin level per gram of tissue at 20 mg/kg, iv after 72 hrs by autoradioluminography; format: ADME, organism-based, Oryctolagus cuniculus, Bone element; set-up: dose 20 mg/kg, route intravenous; conditions: in vivo
[13] = Drug level in New Zealand white rabbit synovial space assessed as [14C]dalbavancin level per gram of tissue at 20 mg/kg, iv after 24 hrs by autoradioluminography; format: ADME, organism-based, Oryctolagus cuniculus; set-up: dose 20 mg/kg, route intravenous; conditions: in vivo
[14] = Drug level in New Zealand white rabbit articular cartilage assessed as [14C]dalbavancin level per gram of tissue at 20 mg/kg, iv after 336 hrs by autoradioluminography; format: ADME, organism-based, Oryctolagus cuniculus; set-up: dose 20 mg/kg, route intravenous; conditions: in vivo
[15] = Drug level in New Zealand white rabbit synovial space assessed as [14C]dalbavancin level per gram of tissue at 20 mg/kg, iv after 168 hrs by autoradioluminography; format: ADME, organism-based, Oryctolagus cuniculus; set-up: dose 20 mg/kg, route intravenous; conditions: in vivo
[16] = Drug level in New Zealand white rabbit compact bone assessed as [14C]dalbavancin level per gram of tissue at 20 mg/kg, iv after 120 hrs by autoradioluminography; format: ADME, organism-based, Oryctolagus cuniculus, Bone element; set-up: dose 20 mg/kg, route intravenous; conditions: in vivo
[17] = Drug level in New Zealand white rabbit bone marrow assessed as [14C]dalbavancin level per gram of tissue at 20 mg/kg, iv after 24 hrs by autoradioluminography; format: ADME, organism-based, Oryctolagus cuniculus; set-up: dose 20 mg/kg, route intravenous; conditions: in vivo
[18] = system: Streptococcus; experiment: Antibacterial activity against Streptococcus; format: functional
[19] = Drug level in New Zealand white rabbit ligament assessed as [14C]dalbavancin level per gram of tissue at 20 mg/kg, iv after 336 hrs by autoradioluminography; format: ADME, organism-based, Oryctolagus cuniculus; set-up: dose 20 mg/kg, route intravenous; conditions: in vivo
[20] = Drug level in New Zealand white rabbit synovial space assessed as [14C]dalbavancin level per gram of tissue at 20 mg/kg, iv after 12 hrs by autoradioluminography; format: ADME, organism-based, Oryctolagus cuniculus; set-up: dose 20 mg/kg, route intravenous; conditions: in vivo
[21] = Drug level in New Zealand white rabbit epiphyseal plate assessed as [14C]dalbavancin level per gram of tissue at 20 mg/kg, iv after 12 hrs by autoradioluminography; format: ADME, organism-based, Oryctolagus cuniculus; set-up: dose 20 mg/kg, route intravenous; conditions: in vivo
[22] = Drug level in New Zealand white rabbit articular cartilage assessed as [14C]dalbavancin level per gram of tissue at 20 mg/kg, iv after 120 hrs by autoradioluminography; format: ADME, organism-based, Oryctolagus cuniculus; set-up: dose 20 mg/kg, route intravenous; conditions: in vivo
[23] = Drug level in New Zealand white rabbit skeletal muscle assessed as [14C]dalbavancin level per gram of tissue at 20 mg/kg, iv after 24 hrs by autoradioluminography; format: ADME, organism-based, Oryctolagus cuniculus; set-up: dose 20 mg/kg, route intravenous; conditions: in vivo
[24] = system: Blood; experiment: Drug level in New Zealand white rabbit blood assessed as [14C]dalbavancin level per gram of tissue at 20 mg/kg, iv after 24 hrs by autoradioluminography; format: ADME, organism-based, Oryctolagus cuniculus; set-up: dose 20 mg/kg, route intravenous; conditions: in vivo
[25] = Drug level in New Zealand white rabbit bone assessed as [14C]dalbavancin level per gram of tissue at 20 mg/kg, iv after 12 hrs by liquid scintillation counting method; format: ADME, organism-based, Oryctolagus cuniculus, Bone element; set-up: dose 20 mg/kg, route intravenous; conditions: in vivo
[26] = Drug level in New Zealand white rabbit compact bone assessed as [14C]dalbavancin level per gram of tissue at 20 mg/kg, iv after 168 hrs by autoradioluminography; format: ADME, organism-based, Oryctolagus cuniculus, Bone element; set-up: dose 20 mg/kg, route intravenous; conditions: in vivo
[27] = Drug level in New Zealand white rabbit meniscus assessed as [14C]dalbavancin level per gram of tissue at 20 mg/kg, iv after 120 hrs by autoradioluminography; format: ADME, organism-based, Oryctolagus cuniculus; set-up: dose 20 mg/kg, route intravenous; conditions: in vivo
[28] = Drug level in New Zealand white rabbit bone marrow assessed as [14C]dalbavancin level per gram of tissue at 20 mg/kg, iv after 24 hrs by liquid scintillation counting method; format: ADME, organism-based, Oryctolagus cuniculus; set-up: dose 20 mg/kg, route intravenous; conditions: in vivo
[29] = system: Oryctolagus cuniculus; experiment: Plasma concentration in New Zealand white rabbit assessed as [14C]dalbavancin level per gram of tissue at 20 mg/kg, iv after 120 hrs by liquid scintillation counting method; format: ADME, organism-based; set-up: dose 20 mg/kg, route intravenous; conditions: in vivo
[30] = Drug level in New Zealand white rabbit epiphyseal plate assessed as [14C]dalbavancin level per gram of tissue at 20 mg/kg, iv after 168 hrs by autoradioluminography; format: ADME, organism-based, Oryctolagus cuniculus; set-up: dose 20 mg/kg, route intravenous; conditions: in vivo
[31] = system: Oryctolagus cuniculus; experiment: Plasma concentration in New Zealand white rabbit assessed as [14C]dalbavancin level per gram of tissue at 20 mg/kg, iv after 168 hrs by liquid scintillation counting method; format: ADME, organism-based; set-up: dose 20 mg/kg, route intravenous; conditions: in vivo
[32] = Drug level in New Zealand white rabbit periostium assessed as [14C]dalbavancin level per gram of tissue at 20 mg/kg, iv after 120 hrs by autoradioluminography; format: ADME, organism-based, Oryctolagus cuniculus, Periosteum; set-up: dose 20 mg/kg, route intravenous; conditions: in vivo
[33] = Drug level in New Zealand white rabbit bone assessed as [14C]dalbavancin level per gram of tissue at 20 mg/kg, iv after 168 hrs by liquid scintillation counting method; format: ADME, organism-based, Oryctolagus cuniculus, Bone element; set-up: dose 20 mg/kg, route intravenous; conditions: in vivo
[34] = Drug level in New Zealand white rabbit bone assessed as [14C]dalbavancin level per gram of tissue at 20 mg/kg, iv after 24 hrs by liquid scintillation counting method; format: ADME, organism-based, Oryctolagus cuniculus, Bone element; set-up: dose 20 mg/kg, route intravenous; conditions: in vivo
[35] = Drug level in New Zealand white rabbit periostium assessed as [14C]dalbavancin level per gram of tissue at 20 mg/kg, iv after 72 hrs by autoradioluminography; format: ADME, organism-based, Oryctolagus cuniculus, Periosteum; set-up: dose 20 mg/kg, route intravenous; conditions: in vivo
[36] = Drug level in New Zealand white rabbit bone assessed as [14C]dalbavancin level per gram of tissue at 20 mg/kg, iv after 336 hrs by liquid scintillation counting method; format: ADME, organism-based, Oryctolagus cuniculus, Bone element; set-up: dose 20 mg/kg, route intravenous; conditions: in vivo
[37] = Drug level in New Zealand white rabbit meniscus assessed as [14C]dalbavancin level per gram of tissue at 20 mg/kg, iv after 24 hrs by autoradioluminography; format: ADME, organism-based, Oryctolagus cuniculus; set-up: dose 20 mg/kg, route intravenous; conditions: in vivo
[38] = Drug level in New Zealand white rabbit synovial space assessed as [14C]dalbavancin level per gram of tissue at 20 mg/kg, iv after 336 hrs by autoradioluminography; format: ADME, organism-based, Oryctolagus cuniculus; set-up: dose 20 mg/kg, route intravenous; conditions: in vivo

CN[C@H]1C(=O)N[C@@H]2Cc3ccc(cc3)Oc3cc4cc(c3O[C@@H]3O[C@H](C(=O)O)[C@@H](O)[C@H](O)[C@H]3NC(=O)CCCCCCCCC(C)C)Oc3ccc(cc3Cl)[C@@H](O)[C@@H]3NC(=O)[C@H](NC(=O)[C@@H]4NC(=O)[C@@H](NC2=O)c2cc(cc(O)c2Cl)Oc2cc1ccc2O)c1ccc(O)c(c1)-c1c(O[C@H]2O[C@H](CO)[C@@H](O)[C@H](O)[C@@H]2O)cc(O)cc1[C@@H](C(=O)NCCCN(C)C)NC3=O [DALBAVANCIN]
Drug uptake [1]: 15.1 µg/g
Drug uptake [2]: 25.1 µg/g
Drug uptake [3]: 30.6 µg/g
Drug uptake [4]: 37.79 µg
Drug uptake [5]: 3.94 µg/g
Drug uptake [6]: 0.76 µg/g
Drug uptake [7]: 0.94 µg/g
Drug uptake [8]: 3.26 µg
Drug uptake [9]: 1.56 µg/g
Drug uptake [10]: 16.1 µg/g
Cp [11]: 19.3 µg/g
Drug uptake [12]: 0.39 µg
Drug uptake [13]: 4.25 µg
Drug uptake [14]: 4.84 µg
Drug uptake [15]: 2.66 µg/g
Drug uptake [16]: 0.38 µg/g
Drug uptake [17]: 32.1 µg/g
MIC90 [18]: ≤ 0.03 µg/mL
Drug uptake [19]: 1.43 µg
Drug uptake [20]: 6.56 µg/g
Drug uptake [21]: 21.9 µg/g
Drug uptake [22]: 6.56 µg
Drug uptake [23]: 1.92 µg
Drug uptake [24]: 14.49 µg
Drug uptake [25]: 7.04 µg
Drug uptake [26]: 0.34 µg/g
Drug uptake [27]: 4.39 µg/g
Drug uptake [28]: 14.8 µg/g
Cp [29]: 2.78 µg
Drug uptake [30]: 13.1 µg/g
Cp [31]: 2.01 µg
Drug uptake [32]: 12.2 µg/g
Drug uptake [33]: 3.39 µg/g
Drug uptake [34]: 5.14 µg/g
Drug uptake [35]: 8.78 µg/g
Drug uptake [36]: 1.96 µg/g
Drug uptake [37]: 12.4 µg/g
Drug uptake [38]: 1.16 µg/g
